Earlier results on two compounds are cited in article PMC8954523 (Pharmaceutics, 2022).

Values after ≈ are worked out from the molar mass of the structure shown.

For data set [1] the following is noted: ref 31; cited from earlier work.
The conditions of data set [2]: 298.15 K; cited from earlier work.

Usually aqueous solubility stands for the concentration that dissolves in the medium under given conditions. With `CNC(=O)c1ccc(N2C(=S)N(c3cnc(C#N)c(C(F)(F)F)c3)C(=O)C23CCC3)cc1F` [apalutamide], in data set [1], the “log DCoct/w” value is on record as 3.90. Also, the aqueous solubility in data set [2] is 7.78 µM (≈ 3.71 µg/mL).

For the compound `CNC(=O)c1ccc(N2C(=S)N(c3ccc(C#N)c(C(F)(F)F)c3)C(=O)C2(C)C)cc1F` [enzalutamide], in data set [1], the “log DCoct/w” value was 4.02. Further, the aqueous solubility in data set [2] was 3.92 µM (≈ 1.82 µg/mL).
